Assays:
Type in all cases: biochemical
[1] = biological target: T1, endogenous plasma FXa (Homo sapiens, UniProt P00742); assay: Russell's viper venom-induced clotting time (RVVT), RPR spiked in plasma
T1 construct: monitoring the effect of RPR on patient's endogenous plasma FXa; from tissue
Description: Dose-dependent clotting time prolongation curve from the compound methyl-3-(4′-N-oxopyridylphenoyl)-3-methyl-2-(m-amidinobenzyl)-propionate (hereinafter “RPR”) or the trifluoroacetate salt of RPR: • 1. Add 0.1 ml FXa buffer, 0.1 ml serial dilution of RPR, 0.1 ml normal pooled or patients plasma to the cuvette then 0.1 ml of RVV-Ca (MLA-800 dotter add this reagent automatically). • 2. Measure clotting time. • 3. Construct the dose-dependent clotting time prolongation curve. • 4. Calculate concentration for 2×RVVT
(§1) • 2. Follow the reaction kinetically for 5 min. • C) Calculation: Measure the initial velocity, however, ignore the lag phase. In general measure the initial rate of the linear portion of the time course. Use initial rates of clinical samples at different time points and then compared to the pre-dosing control to calculate % inhibition. Various concentrations of the compound RPR spiked in plasma were assayed for PT, APTT and PVVT prolongation. […] RVV-X induced clotting time (RVVT) assay could be conveniently used for monitoring the effect of RPR on patient's endogenous plasma FXa.

[2] = system: plasma; assay: PT clotting time, RPR spiked in plasma
Description: as §1

[3] = system: plasma; assay: APTT clotting time, RPR spiked in plasma
Description: as §1

T1 sequence (P00742 235-488 limits assumed): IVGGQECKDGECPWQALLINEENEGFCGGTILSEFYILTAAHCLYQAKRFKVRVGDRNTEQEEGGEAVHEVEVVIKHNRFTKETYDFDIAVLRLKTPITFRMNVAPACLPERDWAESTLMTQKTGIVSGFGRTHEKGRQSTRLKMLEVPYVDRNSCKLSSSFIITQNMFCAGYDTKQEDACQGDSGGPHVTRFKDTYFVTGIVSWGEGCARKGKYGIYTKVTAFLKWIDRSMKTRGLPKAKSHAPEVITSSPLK
T1 sequence (P00742 41-179 partner limits assumed): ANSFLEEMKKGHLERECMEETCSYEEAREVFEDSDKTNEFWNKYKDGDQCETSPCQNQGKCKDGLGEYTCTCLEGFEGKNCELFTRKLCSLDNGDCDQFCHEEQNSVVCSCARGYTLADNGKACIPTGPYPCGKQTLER

COC(=O)C(Cc1cccc(C(=N)N)c1)C(C)C(=O)c1ccc(-c2cc[n+]([O-])cc2)cc1 (stereo not drawn) [RPR, methyl-3-(4′-N-oxopyridylphenoyl)-3-methyl-2-(m-amidinobenzyl)-propionate]
fold-change of RVVT ([1]; RPR 50 μg/ml spiked in plasma): 1.33 fold | fold-change of RVVT ([1]; RPR 166 μg/ml spiked in plasma): 2.66 fold | fold-change of RVVT ([1]; RPR 322 μg/ml spiked in plasma): 4.41 fold | fold-change of PT ([2]; RPR 50 μg/ml spiked in plasma): 1.08 fold | fold-change of PT ([2]; RPR 166 μg/ml spiked in plasma): 1.16 fold | fold-change of PT ([2]; RPR 322 μg/ml spiked in plasma): 1.25 fold | fold-change of APTT ([3]; RPR 50 μg/ml spiked in plasma): 1.08 fold | fold-change of APTT ([3]; RPR 166 μg/ml spiked in plasma): 1.41 fold | fold-change of APTT ([3]; RPR 322 μg/ml spiked in plasma): 1.5 fold
